Laboratory results as given in the RepoRT retention time repository.

Assay: RP, Thermo Scientific Hypersil GOLD, 1.9 µm, 40 °C, 0.4 mL/min; A: water + 0.1% formic acid, pH 3; B: acetonitrile + 0.1% formic acid, pH 3; gradient (min/%B) 0/0 1/0 11/100 13/100 14/0 16/0
Details: stereoisomer not certain

Q: Which LC retention time does the source give for `O=c1ccc2ccccc2o1` [Coumarin] here?
A: 6.42 min

Q: Which LC retention time does the source give for `O=C[C@H](O)[C@H](O)CO` [D-(-)-Erythrose] here?
A: 0.7 min

Q: For `O=CC(O)C1OC(=O)C(O)C1O` [D-GLUCURONOLACTONE], which LC retention time is on record?
A: 0.71 min

Q: With `O=P(O)(O)OCC1OC(O)C(O)C1O` [D-RIBOSE 5-PHOSPHATE] as the molecule, how does the LC retention time read?
A: 0.65 min

Q: With `Nc1ncnc2c1ncn2C1CC(O)C(COP(=O)(O)O)O1` (stereo not given) [DEOXYADENOSINE MONOPHOSPHATE] as the molecule, how does the LC retention time read?
A: 0.84 min

Q: For `Nc1ncnc2c1ncn2C1CC(O)C(CO)O1` (stereo not given) [DEOXYADENOSINE], which LC retention time is on record?
A: 1.09 min

Q: With `C[N+](C)(C)CCCC(=O)O` [DEOXYCARNITINE] as the molecule, how does the LC retention time read?
A: 0.67 min

Q: For `CC(=O)OCC(=O)C1CCC2C3CCC4=CC(=O)CCC4(C)C3CCC12C` (stereo not given) [DEOXYCORTICOSTERONE ACETATE], which LC retention time is on record?
A: 9.25 min

Q: For `Nc1ccn(C2CC(O)C(COP(=O)(O)O)O2)c(=O)n1` (stereo not given) [DEOXYCYTIDINE MONOPHOSPHATE], which LC retention time is on record?
A: 0.74 min

Q: For `Nc1ccn(C2CC(O)C(COP(=O)([O-])OP(=O)([O-])[O-])O2)c(=O)n1` (stereo not given) [DEOXYCYTIDINE-DIPHOSPHATE], which LC retention time is on record?
A: 1.13 min

Q: For `Nc1ccn(C2CC(O)C(CO)O2)c(=O)n1` (stereo not given) [DEOXYCYTIDINE], which LC retention time is on record?
A: 0.83 min

Q: For `Nc1nc2c(ncn2C2CC(O)C(CO)O2)c(=O)[nH]1` (stereo not given) [DEOXYGUANOSINE], which LC retention time is on record?
A: 1.77 min

Q: With `O=c1ccn(C2CC(O)C(COP(=O)(O)O)O2)c(=O)[nH]1` (stereo not given) [DEOXYURIDINE-MONOPHOSPHATE] as the molecule, how does the LC retention time read?
A: 0.82 min

Q: Which LC retention time does the source give for `O=c1ccn(C2CC(O)C(CO)O2)c(=O)[nH]1` (stereo not given) [DEOXYURIDINE] here?
A: 1.24 min

Q: Which LC retention time does the source give for `CC(C)=CCCC(C)C1CCC2C3CC=C4CC(O)CCC4(C)C3CCC12C` (stereo not given) [DESMOSTEROL] here?
A: 13.9 min

Q: Which LC retention time does the source give for `CC1NC(=O)NC1CCCCCC(=O)O` (stereo not given) [DETHIOBIOTIN] here?
A: 5.47 min

Q: For `CCCCCCCCCC(=O)OCC(COP(=O)([O-])OCC[N+](C)(C)C)OC(=O)CCCCCCCCC` (stereo not given) [DIDECANOYL-GLYCEROPHOSPHOCHOLINE], which LC retention time is on record?
A: 11.1 min

Q: With `OCCNCCO` [DIETHANOLAMINE] as the molecule, how does the LC retention time read?
A: 0.6 min

Q: Which LC retention time does the source give for `Nc1nc2c(c(=O)[nH]1)N=C(CNc1ccc(C(=O)NC(CCC(=O)O)C(=O)O)cc1)CN2` (stereo not given) [DIHYDROFOLATE] here?
A: 4.54 min

Q: With `O=C1CC(C(=O)O)NC(=O)N1` (stereo not given) [DIHYDROOROTATE] as the molecule, how does the LC retention time read?
A: 0.77 min

Q: Which LC retention time does the source give for `O=C1CCNC(=O)N1` [DIHYDROURACIL] here?
A: 0.82 min

Q: With `O=C(CO)COP(=O)(O)O` [DIHYDROXYACETONE PHOSPHATE] as the molecule, how does the LC retention time read?
A: 0.69 min

Q: Which LC retention time does the source give for `NCCc1ccc(O)c(O)c1` [DOPAMINE] here?
A: 0.83 min

Q: With `CCCCCCCCCC(=O)OC(CC(=O)[O-])C[N+](C)(C)C` [Decanoyl-L-carnitine] as the molecule, how does the LC retention time read?
A: 7.63 min

Q: With `CC(=O)C1C(=O)C=C(C)OC1=O` (stereo not given) [Dehydroacetic acid] as the molecule, how does the LC retention time read?
A: 6.42 min

Q: For `CNCC(O)c1ccc(O)c(O)c1` (stereo not given) [EPINEPHRINE], which LC retention time is on record?
A: 0.74 min

Q: With `CCCCCCCCC=CCCCCCCCCCCCC(=O)O` [ERUCATE] as the molecule, how does the LC retention time read?
A: 13.5 min

Q: Which LC retention time does the source give for `CC12CCC3c4ccc(O)cc4CCC3C1CCC2O` (stereo not drawn) [ESTRADIOL-17ALPHA] here?
A: 8.07 min

Q: For `CCOC(=O)Cc1c[nH]c2ccccc12` [ETHYL 3-INDOLEACETATE], which LC retention time is on record?
A: 8.03 min

Q: With `CCC(C(=O)O)C(=O)O` [ETHYLMALONATE] as the molecule, how does the LC retention time read?
A: 3.77 min

Q: Which LC retention time does the source give for `COc1cc(C=CC(=O)O)ccc1O` [FERULATE] here?
A: 5.67 min

Q: For `Nc1nc2ncc(CNc3ccc(C(=O)NC(CCC(=O)O)C(=O)O)cc3)nc2c(=O)[nH]1` (stereo not given) [FOLATE], which LC retention time is on record?
A: 4.68 min

Q: For `O=P(O)(O)OCC1OC(O)(CO)C(O)C1O` (stereo not given) [FRUCTOSE 6-PHOSPHATE], which LC retention time is on record?
A: 0.66 min

Q: With `OCC1OC(O)C(O)C(O)C1O` (stereo not given) [GALACTOSE] as the molecule, how does the LC retention time read?
A: 0.64 min

Q: With `O=C1OC(CO)C(O)C(O)C1O` (stereo not given) [GLUCONOLACTONE] as the molecule, how does the LC retention time read?
A: 0.64 min

Q: With `NC(C(=O)O)C(O)C(O)C(O)CO` (stereo not given) [GLUCOSAMINATE] as the molecule, how does the LC retention time read?
A: 0.62 min

Q: Which LC retention time does the source give for `NC1C(O)OC(COP(=O)(O)O)C(O)C1O` (stereo not given) [GLUCOSAMINE 6-PHOSPHATE] here?
A: 0.6 min

Q: Which LC retention time does the source give for `NC1C(O)OC(COS(=O)(=O)O)C(O)C1O` (stereo not given) [GLUCOSAMINE 6-SULFATE] here?
A: 0.62 min

Q: With `O=CC(O)CO` (stereo not given) [GLYCERALDEHYDE] as the molecule, how does the LC retention time read?
A: 0.64 min

Q: For `O=P(O)(O)OCC(O)CO` (stereo not given) [GLYCEROL 3-PHOSPHATE], which LC retention time is on record?
A: 0.67 min

Q: For `CCCCCCCCCCCCCC(=O)OCC(O)CO` (stereo not given) [GLYCEROL-MYRISTATE], which LC retention time is on record?
A: 11.2 min

Q: Which LC retention time does the source give for `OCC(O)CO` [GLYCEROL] here?
A: 0.68 min

Q: With `NC(N)=NCC(=O)O` [GUANIDINOACETATE] as the molecule, how does the LC retention time read?
A: 0.62 min

Q: Which LC retention time does the source give for `NC(N)=NC(CC(=O)O)C(=O)O` (stereo not given) [GUANIDINOSUCCINATE] here?
A: 0.67 min

Q: With `Nc1nc2nc[nH]c2c(=O)[nH]1` [GUANINE] as the molecule, how does the LC retention time read?
A: 0.78 min

Q: Which LC retention time does the source give for `Nc1nc2c(ncn2C2OC(COP(=O)(O)OP(=O)(O)OC3OC(CO)C(O)C(O)C3O)C(O)C2O)c(=O)[nH]1` (stereo not given) [GUANOSINE DIPHOSPHATE MANNOSE] here?
A: 4.1 min

Q: Which LC retention time does the source give for `Nc1nc2c(ncn2C2OC(COP(=O)(O)O)C(O)C2O)c(=O)[nH]1` (stereo not given) [GUANOSINE MONOPHOSPHATE] here?
A: 0.81 min

Q: For `Nc1nc2c(ncn2C2OC(CO)C(O)C2O)c(=O)[nH]1` (stereo not given) [GUANOSINE], which LC retention time is on record?
A: 1.26 min

Q: With `NCC(=O)NCC(=O)O` [Gly-Gly] as the molecule, how does the LC retention time read?
A: 0.62 min

Q: For `[NH3+]CC(=O)N1CCCC1C(=O)[O-]` (stereo not given) [Gly-Pro], which LC retention time is on record?
A: 0.82 min
